{"source": "patent US20130040853A1", "about": "“Context Specific Genetic Screen Platform to Aid in Gene Discovery and Target Validation” (Dana-Farber Cancer Institute Inc., priority 2010, published 2013)", "tested_on": "HMEL-BRAF^V600E melanocytes", "assay": "In vivo functional genetic screen and secondary validation: kinase-transduced HMEL cells implanted in nude mice", "set-up": "species or system human", "excerpt": "A ‘cancer-kinase’ library was constructed containing sequence-verified ORFs in a lentiviral vector for 110 of the 120 kinases reported to sustain somatic driver mutations in diverse human cancers. This library was pooled and introduced into a human HMEL-BRAF^V600E melanocyte model system engineered with BRAF^V600E and TERT as well as p53DD and CDK4-R24C to inactivate the […] pathways, respectively. The HMEL-BRAF^V600E melanocyte profile, while representing the most common clinically-definable genetic profile in human melanoma, is insufficient to drive efficient melanoma formation following orthotopic transplantation in the skin (penetrance of 10% and latency of 26 weeks). In contrast, 40% of HMEL-BRAF^V600E melanocytes transduced with the cancer kinase pools developed tumors with an average latency of 13 weeks (range 10-18 weeks).\nIn vivo functional genetic screens: Lentivirus were prepared by co-transfecting 293T cells with individual vector backbones and standard virus packaging systems for subsequent collection of viral supernatants. Viral supernatants were then pooled randomly to generate 8 pools of high-titer lentiviral stocks. HMEL cells were transduced with either GFP control lentivirus or each representative lentiviral pool in the presence of 8 ug/ml polybrene (Company). […]", "data": [{"substance": "JNK2 WT: wild type MAPK9/JNK2 kinase ORF expressed in HMEL cells", "values": [{"measurement": "Tumorigenicity in vivo", "setting": "WT or mutant kinase expressed individually", "result": "YES"}, {"measurement": "tumor penetrance", "setting": "secondary validation, kinase transduced individually into HMEL-BRAF^V600E melanocytes", "result": 50, "unit": "%"}]}]}
